Consider 2 compounds from article PMC9569954, “The Antidepressant-like Activity, Effects on Recognition Memory Deficits, Bioavailability, and Safety after Chronic Administration of New Dual-Acting Small Compounds Targeting Neuropsychiatric Symptoms in Dementia” (International Journal of Molecular Sciences, 2022).

The nature of series [1]: Serum glucose, triglyceride and cholesterol concentrations. In kind it is in vivo, rats. The conditions noted are these: rat, 1 mg/kg/day i.p., 21 days. How it is done: The blood samples were collected immediately after decapitation and then centrifuged at 600× g […], 4 °C, to separate the plasma. The blood was used to determine metabolic parameters such as glucose, cholesterol, and triglyceride levels, together with liver enzymatic activity.
Standard enzymatic spectrophotometric tests (Biomaxima S.A., Lublin, Poland) were used to determine glucose, cholesterol, and triglyceride levels in the serum. In the presence of an appropriate enzyme, the substrate was converted to a colored compound. Absorbance was measured at a wavelength of 500 nm.

Series [2] relates to rats. Description: 18-hour spontaneous activity monitoring. In kind it is in vivo, male Wistar rats. Particulars: rat, after 20-day administration, 1 mg/kg/day i.p., 18-h monitoring. The method, then:
Spontaneous activity was measured on the 20th day of the treatment with a special, innovative, radio-frequency identification system (RFID-system), TraffiCage (TSE-Systems, Bad Homburg, Germany). The test was conducted according to the method described previously. The animals had RFID transmitters implanted subcutaneously, which tracked the time they spent in different areas of the cage.

A further series can be described thus: Body weight measurement. The series is classed as in vivo, rats. Particulars: rat, 20-day administration, 1 mg/kg/day i.p. The method, then: Body weight was measured every second day, immediately before the administration of drugs.
Series [3] relates to (+)-MK-801-induced memory deficits. Description: Novel object recognition (NOR) test in (+)-MK-801 treated rats. The series is classed as in vivo, male Wistar rats. Particulars: rat; for Total Exploratory Time in T2 Session: vehicle 49.67 ± 4.63. The method, then:
The rats were injected with the respective compounds for 21 consecutive days at the minimum active doses selected previously, based on acute treatment and assessment in the NOR test. The protocol for the NOR test was adapted from the original work and the test was performed according to the previously described protocol, 24 h after the last injection of the investigated compound. The discrimination index (DI) was calculated according to the formula:(7) DI=(EB−EA)/(EA+EB) where EB is the exploration time of novel object during the T2 session and EA is the exploration time of […].
PQA-AZ4 and PQA-AZ-6 were administered for 60 and 30 min, respectively, before the T1 phase (the familiarization phase). MK-801 was used to attenuate learning and was administered at a dose of 0.1 mg/kg (i.p.) 30 min before the familiarization phase (T1). The total exploration time in T2 was used to determine the influence of the treatment on the exploratory activity of the animals.

Another series has as its system Bdnf gene. The series is described as follows: Bdnf gene expression in brain structures (RT-qPCR, ex vivo). The arrangement: species or system rats. Particulars: rat, 1 mg/kg/day i.p., 21 days. The method, then:
Animals in all treatment groups were sacrificed by rapid decapitation immediately after the behavioral tests, when the brains and blood samples were collected. For quantitative reverse transcription-polymerase chain reaction (RT-qPCR), the brains of rats were rapidly removed, and the hippocampus and prefrontal cortex were dissected on an ice-cold glass plate. The tissues were frozen in dry ice and stored at −80 °C until required.
The total RNA was extracted from tissues using an RNA Isolation kit (Thermo Fisher Scientific, Rockford, IL, USA), and its concentration was normalized to 20 ng/μL. Reverse transcription was performed with a High-Capacity Reverse Transcription Kit (Life Technologies, Grand Island, NY, USA). A qPCR fast 96-well reaction plate was used for the process with TaqMan Gene Expression assay (Life Technologies) for brain-derived neurotrophic factor Bdnf (Rn02531967_s1) on an Applied Biosystems® 7500 Fast Real-Time PCR Instrument (Applied Biosystems, Foster City, CA, USA), according to the manufacturer’s protocol. Glyceraldehyde-3-phosphate dehydrogenase, Gapdh (Rn01775763_g1), was selected as endogenous control, based on the pilot experiment. Relative normalized expression was calculated using the ΔΔCq method.
(Quantitative PCR measures a nucleic acid by following its amplification.)

Series [4] in a line: Ferric-reducing antioxidant power (FRAP) of serum. The series is classed as in vivo, rats. The conditions noted are these: rat, 1 mg/kg/day i.p., 21 days. How it is done: The assay was performed according to Benzie and Strain [46] with some modifications. The FRAP working solution was prepared before the start of the analysis, namely, 0.3 mol acetate buffer (pH 3.6), 0.01 mol TPTZ (2,4,6-tripyridyl-s-triazine; Sigma-Aldrich) in 0.04 mol HCl (POCh, Gliwice, Poland), and 0.02 M FeCl3×6H2O in water (iron (III) chloride hexahydrate; Chempur, Piekary Śląskie, Poland) were mixed in a volumetric ratio of 10:1:1 and protected from light.
Next, 20 µL of the plasma sample tested, brain homogenate, or FeSO4×7H2O solution was mixed with 180 µL of the FRAP working solution. The mixtures obtained were incubated at 37 °C for 30 min and their absorbance was measured at 593 nm. FeSO4×7H2O (100–1000 µM/L) was used for a calibration curve. Deionized water with FRAP solution was used as a blank.

For series [5], the system named is rats. Description: Forced swim test (FST). In kind it is in vivo, male Wistar rats. The conditions noted are these: rat. How it is done:
The rats were injected for 21 consecutive days at a dose of 1 mg/kg, similar to the dose used in acute treatment, as per data presented in Supplementary Materials (Table S1). The FST was conducted according to the method of Porsolt. On the first day of the experiment, the animals were gently placed individually for 15 min in Plexiglas cylinders (40 cm high, 18 cm in diameter) containing 15 cm of water maintained at 23–25 °C. On removal from water, the rats were placed for 30 min in a Plexiglas box under a 60 W bulb to dry. On the following day (24 h later), the rats were replaced in the cylinder and the total duration of immobility was recorded during the whole 5 min test period. Immobility was assigned when no additional activity was observed other than that necessary to keep the rat’s head above the water. Fresh water was used for each animal.
FST after acute administration of the investigated compounds
Rats were injected 60 min before the test at a dose of 1 mg/kg. FST was carried out according to the method of Porsolt, and the same procedure was used for chronic treatment.
Table S1. Effect of acute treatment of PQA-AZ4, PQA-AZ6, and PQ-10 on the immobility time in the […]
Compound (mg/kg) Immobility time (s)
Compounds were injected i.p. 60 min before the test. Values represent the means ± SEM of immobility in the FST during a 5 min test session. The data were analyzed using one -way ANOVA, followed by Bonferroni‘s post hoc test; NS = nonsignificant; N=7-8.

[6] abbreviates: chronic 1 mg/kg/day i.p., 21 days.

Each structure is given as a SMILES string.

`COc1cc2ncnc(N3CC[C@@H](Oc4cnc5ccccc5n4)C3)c2cc1OC` [PQ-10, 6,7-dimethoxy-4-[(3R)-3-(2-quinoxalinyloxy)-1-pyrrolidinyl]-quinazoline, reference compound]: in series [1], the “serum glucose concentration vs vehicle” value was “did not significantly change”, the “serum triglycerides concentration vs vehicle” value is given as “did not significantly change” and the “total cholesterol concentration vs vehicle” value was “slight but statistically significant (p < 0.05) increase”. Further, the “spontaneous activity vs vehicle” value with rats [2] is recorded as “No significant effect”. Besides, the “weight gain vs vehicle” value in the series “Body weight measurement” is recorded as “did not result in a change”. In addition, the “Total Exploratory Time in T2 Session” value in series [3] (0.3 mg/kg/day i.p. 21 days + (+)-MK-801 0.1 mg/kg) is listed as 47.13 ± 5.69 F(2,18) = 0.3006; NS s. Besides, the “effect on (+)-MK-801-induced recognition memory deficits (discrimination index)” value in series [3] (0.3 mg/kg/day i.p., 21 days, (+)-MK-801 0.1 mg/kg i.p.) is recorded as “restored recognition memory deficits”. The “Bdnf expression upregulation vs control, hippocampus” value with Bdnf gene (hippocampus (Hipp)) is “about 17 fold”. Further, the “Bdnf expression upregulation vs control, prefrontal cortex” value with Bdnf gene (prefrontal cortex (PFX)) was “about 34 fold”. For the same compound, in series [4], the “total antioxidant activity of serum (Fe2+ formed, FRAP) vs control” value was “comparable”. Further, in the series with rats [5] (acute 1 mg/kg i.p., 60 min before test, 5 min session, vehicle 255.9 ± 8.6), the Immobility time worked out at 249.1 ± 10.4 s. Further, in the series with rats [5] (setting [6]), the “antidepressant-like activity in FST” value is listed as “showed antidepressant-like properties” and the “decrease of immobility vs. control group in FST” value is given as “about 9%”.
Consider `C[C@]12N[C@H](Cc3ccccc31)c1ccccc12` [(+)-MK-801, Dizocilpine, reference compound], for which the “Total Exploratory Time in T2 Session” value in series [3] ((+)-MK-801 0.1 mg/kg i.p. + vehicle) came out at 44.00 ± 4.05 s.
